The values that follow come from patent publication US10149838B2, “Small molecule securinine and norsecurinine analogs and their use in inhibiting myeloperoxidase” (MiRx Pharmaceuticals, LLC, priority 2013, dated 2018).

Molecules are shown by their SMILES.

In the first data set the test system is some cell lines. The data set is described as follows: MTT cell survival assay (Roche), cell lines not specified. Type of data set: cell-based. To be noted: cell culture conditions. The source says:
The securinine analog MPO inhibitors have favorable in vitro and in vivo toxicity profiles.
For orientation: Tetrazolium dyes change colour on reduction, which living cells bring about.
Turning to `O=C1C=C2C=C[C@@H]3C[C@@]2(O1)[C@H]1CCCCN31` [MA1], the “in vitro toxicity (cell survival)” value is on record as “higher toxicity effect on some cell lines”.

In a further data set the target is T1, MPO (Homo sapiens, UniProt P05164).
T1 sequence (P05164 49-745): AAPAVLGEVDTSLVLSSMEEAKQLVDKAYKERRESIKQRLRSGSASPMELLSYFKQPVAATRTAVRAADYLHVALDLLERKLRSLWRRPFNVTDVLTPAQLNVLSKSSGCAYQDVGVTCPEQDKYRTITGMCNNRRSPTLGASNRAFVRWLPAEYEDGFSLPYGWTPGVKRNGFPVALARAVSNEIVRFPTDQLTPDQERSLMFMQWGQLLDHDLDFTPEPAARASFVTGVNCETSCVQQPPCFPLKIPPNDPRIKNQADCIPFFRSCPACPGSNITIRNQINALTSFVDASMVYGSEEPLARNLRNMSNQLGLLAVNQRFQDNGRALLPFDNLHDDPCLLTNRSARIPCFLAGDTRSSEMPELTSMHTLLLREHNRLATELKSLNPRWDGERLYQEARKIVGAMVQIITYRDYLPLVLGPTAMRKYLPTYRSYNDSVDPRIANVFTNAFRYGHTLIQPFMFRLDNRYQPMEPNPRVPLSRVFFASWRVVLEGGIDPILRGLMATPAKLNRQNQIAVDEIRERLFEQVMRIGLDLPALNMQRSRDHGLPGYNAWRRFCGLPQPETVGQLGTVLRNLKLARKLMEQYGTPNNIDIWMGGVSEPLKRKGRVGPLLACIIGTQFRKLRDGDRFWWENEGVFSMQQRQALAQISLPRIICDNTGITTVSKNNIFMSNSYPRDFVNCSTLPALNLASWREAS
The data set is described as follows: Myeloperoxidase Inhibitor Screening Assay Kit (Cayman Chemical), chlorination activity. Type of data set: biochemical. Also on record: purchased Cayman Chemical 700170; concentration or dose not given beside the values. As to conditions: Table 1; MPO inhibitory activity. On the procedure: The columns are represented as follows: A: Blank; B: Commercial inhibitor; C; Another commercial inhibitor (sc-204107); D: Securinine; E: INVS-MG-98B, F: 14-Iodosecurinine; G; INVS-MG-106B.
The analogs described herein were contacted against MPO and the biological activity was assessed. Tables 1 and 2 show representative biological activity examples and that the listed compounds are potent inhibitors of MPO, specifically that the analogs inhibit chlorination activity. The compounds were tested for MPO inhibitory activity using the Myeloperoxidase Inhibitor Screening Assay Kit (Cayman Chemical Cat #700170) as described in the manufacturers manual
Studies were then aimed at establishing dose dependent relative chlorination activity results of securinine and norsecurinine analogs. As depicted in FIG. 4, the analogs of the present invention were extremely potent in inhibiting chlorination.
On to `O=C1C=C2C[C@H](SCC(F)(F)F)[C@@H]3C[C@@]2(O1)[C@H]1CCCCN31` (stereo in doubt) [5B], for which the “% Activity” value was found to be 83%.

As for `CC(C)CSC1CC2=CC(=O)O[C@@]23C[C@@H]1N1CCCC[C@@H]13` (stereo in doubt) [57A], the “% Activity” value was determined as 86%.

Regarding `CC(C)CS[C@H]1CC2=CC(=O)O[C@@]23C[C@@H]1N1CCCC[C@@H]13` (stereo in doubt) [57B], the “% Activity” value stood at 2%.

Take `O=C1C=C2CC(SC34CC5CC(CC(C5)C3)C4)[C@@H]3C[C@@]2(O1)[C@H]1CCCCN31` (stereo partly drawn) [4A]: the “% Activity” value is listed as 1%.

With `O=C1CC2(SCC(F)(F)F)CC(SCC(F)(F)F)[C@@H]3C[C@@]2(O1)[C@H]1CCCCN31` (stereo partly drawn) [5A], the “% Activity” value was 78%.

Take `O=C1C=C2CC(N3CCC(F)(F)C3)[C@@H]3C[C@@]2(O1)[C@H]1CCCCN31` (stereo partly drawn) [9A]: the “% Activity” value was 46%.

Take `O=C1C=C2CC(SCC3CCCCCC3)[C@@H]3C[C@@]2(O1)[C@H]1CCCCN31` (stereo partly drawn) [16A]: the “% Activity” value was 91%.

For `CCCCCCCSC1CC2=CC(=O)O[C@@]23C[C@@H]1N1CCCC[C@@H]13` (stereo partly drawn) [19A], the “% Activity” value was determined as 38%.

As for `CCN(CC)CCSC1CC2=CC(=O)O[C@@]23C[C@@H]1N1CCCC[C@@H]13` (stereo partly drawn) [21B], the “% Activity” value worked out at 30%.

Take `O=C1C=C2CC(NCC3CC3)[C@@H]3C[C@@]2(O1)[C@H]1CCCCN31` (stereo partly drawn) [25B]: the “% Activity” value amounted to 99%.

Regarding `O=C1C=C2CC(NC3CC3)[C@@H]3C[C@@]2(O1)[C@H]1CCCCN31` (stereo partly drawn) [26A], the “% Activity” value was found to be 83%.

On to `O=C1C=C2CC(NC3CCCC3)[C@@H]3C[C@@]2(O1)[C@H]1CCCCN31` (stereo partly drawn) [27B], for which the “% Activity” value is given as 46%.

As to `O=C1C=C2CC(NC3CCCCC3)[C@@H]3C[C@@]2(O1)[C@H]1CCCCN31` (stereo partly drawn) [28B], the “% Activity” value is given as 86%.

Turning to `O=C1C=C2CC(NC3CCCCCC3)[C@@H]3C[C@@]2(O1)[C@H]1CCCCN31` (stereo partly drawn) [29A], the “% Activity” value is recorded as 1%.

On to `O=C1C=C2CC(NC3CCCCCCC3)[C@@H]3C[C@@]2(O1)[C@H]1CCCCN31` (stereo partly drawn) [30A], for which the “% Activity” value amounted to 78%.

Take `CC(C)SC1CC2=CC(=O)O[C@@]23C[C@@H]1N1CCCC[C@@H]13` (stereo partly drawn) [37B]: the “% Activity” value is recorded as 97%.

As for `O=C1C=C2CC(NC3CC(O)C3)[C@@H]3C[C@@]2(O1)[C@H]1CCCCN31` (stereo partly drawn) [46B], the “% Activity” value is listed as 99%.

Consider `CCCSC1CC2=CC(=O)O[C@@]23C[C@@H]1N1CCCC[C@@H]13` (stereo partly drawn) [58C], for which the “% Activity” value was 30%.

Turning to `CO[C@H]1CC2=CC(=O)O[C@@]23C[C@@H]1N1CCCC[C@@H]13` [97-IIB], the “% Activity” value is 97%.

For `CCCN(CC#CC1=C[C@@H]2C[C@@]3(OC(=O)C=C13)[C@H]1CCCCN21)CCC` [152A], the “% Activity” value turned out to be 18%.

As to `COc1ccc2cc(C#CC3=C[C@@H]4C[C@@]5(OC(=O)C=C35)[C@H]3CCCCN43)ccc2c1` [157B], the “% Activity” value amounted to 80%.

For the compound `O=C1C=C2C(C#Cc3cccs3)=C[C@@H]3C[C@@]2(O1)[C@H]1CCCCN31` [170B], the “% Activity” value is 64%.

For `C#CC1=C[C@@H]2C[C@@]3(OC(=O)C=C13)[C@H]1CCCCN21` [207A], the “% Activity” value worked out at 99%.

In the case of `COc1cc(C#CC2=C[C@@H]3C[C@@]4(OC(=O)C=C24)[C@H]2CC[C@H](C(OC)OC)N32)cc(OC)c1` [222B], the “% Activity” value is given as 70%.

As to `O=C1C=C2CC(SCc3cccs3)[C@@H]3C[C@@]2(O1)[C@H]1CCCCN31` (stereo partly drawn) [INVS-MG-14B], the “% Activity” value came to 83%.

As to `O=C(CCCC[C@@H]1SC[C@@H]2NC(=O)N[C@@H]21)NCCS[C@H]1CC2=CC(=O)O[C@@]23C[C@@H]1N1CCCC[C@@H]13` [SEC- BIO], the “% Activity” value was found to be 32%.

Turning to `NCCSC1CC2=CC(=O)O[C@@]23C[C@@H]1N1CCCC[C@@H]13` (stereo partly drawn) [compound 105], the “% Activity” value is reported as 99%.

As to `O=C1C=C2C=C[C@@H]3C[C@@]2(O1)[C@H]1CCCCN31` [securinine, Securinine], the “% Activity” value was 32%.

A further data set concerns the target T1, MPO. Put plainly: Biotin pull-down with streptavidin magnetic beads from HL60 cells, SDS-PAGE, MS and western blot. Type of data set: binding. Also on record: endogenous in cells; host or cells: HL60. To be noted: 10 μM, 2 hr, biotin-conjugated. How it is done: Only MPO (red) and H2O2 promoted a shift in the Soret peak, formation of a new band at 630 nm (blue).
It was next set about to investigate the molecular target of the analogs (FIG. 6A). Cultured HL60 cells were treated with either Biotin/Biotin-INVMG1 (securinine) (10 μM) for 2 hr and pull-down experiments using streptavidin magnetic beads were used to pulldown bound molecules, followed by SDS-PAGE analysis (FIG. 6B). […] This 80 kDa protein band was excised, digested with trypsin, and the tryptic digests then analyzed using Mass Spectroscopy. […] The proteins bound to streptavidin beads were next separated using SDS-PAGE and incubated then with anti-human MPO antibody. […] To further confirm the binding of INVMG1 to MPO, the MPO enzyme was incubated with and without INVMG184B/H2O2, and analyzed absorption maxima using UV/visible.
(In general: In western blotting, separated proteins are transferred to a membrane and probed.)
With `O=C1C=C2C=C[C@@H]3C[C@@]2(O1)[C@H]1CCCCN31` [securinine, Securinine], the “binding to MPO in pull-down” value was “revealed the binding of MPO”.
